Experimental data taken from patent publication EP1311531B1, “STEROID DERIVED ANTIBIOTICS” (Brigham Young University, priority 2000, dated 2002).
Values after ≈ are worked out from the molar mass of the structure shown. Like-named read-outs stand apart in the source and are kept apart here.

Assays:
[1] = system: Escherichia coli ATCC 25922; settings: ATCC25922
Procedure: (§3) FICs can be performed by checkerboard titrations of compounds in one dimension of a microtiter plate, and of antibiotics in the other dimension, for example. The FIC is calculated by looking at the impact of one antibiotic on the MIC of the other and vice versa. […] As used herein, FIC can be determined as follows: FIC = (MIC(compound in combination))/(MIC(compound alone)) + (MIC(antibiotic in combination))/(MIC(antibiotic alone)) [formula]
(§4) Concentrations of 0.5, 1.0 or 3.0 µg/mL of these antibiotics were used, and the concentrations of the cholic acid derivatives required to inhibit bacterial growth of Gram-negative strains were determined.

[2] = system: Escherichia coli ATCC 25922; experiment: Sensitization to erythromycin, novobiocin or rifampicin (permeabilization, FIC); settings: Table 13; with rifampicin (order of b151); Escherichia coli ATCC 25922
Procedure: as §3, §4

[3] = system: Enterococcus faeculis ATCC 29212; experiment: MIC and MBC measurement; format: cell-based, Enterococcus faecalis; settings: ATCC29212
Procedure: General: Microorganisms. Reference strains were purchased from the American Type Culture Collection (Rockville, MD) or Bactrol disks from Difeo Laboratories (Detroit, MI). […] Bacterial strains were maintained on Mueller-Hinton agar plates, and Candida albicans was maintained on Sabouraud Dextrose agar plates.
Aliquots (20 mL) of the homogeneous solution were then poured in sterile plastic petri dishes (100 x 15 mm, Fisher Scientific). Solutions of compounds were made by dissolving the HCl salt of the respective compound into an appropriate amount of deionized and sterilized water followed by microfiltration.
Aliquots of 1 mL of the suspension were added to test tubes containing 1 mL TSB and incrementally varied concentrations of cholic acid derivatives and/or erythromycin or novobiocin. […] Additionally, an alliquot from each of the samples showing no measurable turbidity was subcultured on TSA plates (alliquots were diluted to provide fewer than 300 CFU). Colonies that grew on the subculture after overnight incubation were counted and the number of CFU/mL in the samples were calculated. The calculated values were compared to the number of CFU/mL in the original inoculum.

[4] = system: Klebsiella pneumonia ATCC 13883; experiment: Sensitization to erythromycin, novobiocin or rifampicin (permeabilization, FIC); format: cell-based, Klebsiella pneumoniae
[5] = system: E. coli (ATCC 10798); experiment: Sensitization to erythromycin or novobiocin (outer membrane permeabilization, FIC); format: cell-based, Escherichia coli; settings: Table 9; Escherichia coli (ATCC 10798)
Procedure, shortened: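 E. coli in TSB received cholic acid derivatives, then erythromycin or novobiocin 15 minutes later, in checkerboard titration, stationary at 37°C for 24 hours. Turbidity was read at 760 nm; clear samples were subcultured on TSA for CFU/mL versus inoculum. FIC = sum of MIC-in-combination/MIC-alone ratios for compound and antibiotic.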

[6] = system: Streptococcus pyogenes ATCC 19615; experiment: MIC and MBC measurement; format: cell-based; settings: ATCC19615, Table 10
Procedure, shortened: (§1)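 Bacteria kept on Mueller-Hinton agar; compounds (HCl salts) dissolved in sterile deionized water and microfiltered. Suspension mixed 1:1 with TSB containing graded concentrations of cholic acid derivatives and/or erythromycin or novobiocin; turbidity read for MIC. Non-turbid samples subcultured on TSA, CFU/mL compared with inoculum for MBC.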

[7] = system: Klebsiella pneumonia ATCC 13883; experiment: MIC and MBC measurement; format: cell-based; settings: Klebsiella pneumoniae, ATCC13883
Procedure, shortened: as §1

[8] = system: Pseudomonas aeruginosa ATCC 27853; experiment: MIC and MBC measurement; format: cell-based; settings: ATCC27853, Table 10, Pseudomonas aeruginosa ATCC 27853
Procedure, shortened: as §1

[9] = system: Salmonella typhimurium ATCC 14028; experiment: MIC and MBC measurement; format: cell-based; settings: Salmonella enterica
Procedure, shortened: as §1

[10] = system: Escherichia coli ATCC 25922; experiment: MIC and MBC measurement; format: cell-based; settings: Escherichia coli, ATCC25922, Table 10, Escherichia coli ATCC 25922; for MIC: read-out: MIC
Procedure, shortened: (§2)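 Tube dilution in tryptic soy broth with compounds dissolved in water as HCl salts; stationary incubation 37°C for 24 hours, MIC from turbidity at 760 nm. MBC from subculture of non-turbid samples on TSA plates, CFU/mL compared with the original inoculum.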

[11] = system: Staphylococcus aureus ATCC 25923; experiment: MIC and MBC measurement; format: cell-based; settings: ATCC25923, Table 10, Staphylococcus aureus ATCC 25923; for MIC: read-out: MIC
Procedure, shortened: as §2

[12] = Table 12, with novobiocin (order of b151), Klebsiella pneumonia ATCC 13883
[13] = Table 13, with rifampicin (order of b151), Klebsiella pneumonia ATCC 13883

MIC [3]	MIC [6]	MIC [7]	Structure (SMILES)	concentration required for bacterial growth inhibition [1]	FIC [2]	concentration required for bacterial growth inhibition [2]	MBC [3]	FIC ([4]; ATCC13883)	concentration required for bacterial growth inhibition ([4]; ATCC13883)	concentration required for bacterial growth inhibition [4, 12]	FIC [4, 13]	concentration required for bacterial growth inhibition [4, 13]	(a) Concentration required to lower the MIC of erythromycin from 70 to 1 µg/mL [5]	(b) MBC with 1 µg/mL erythromycin [5]	(d) Concentration required to lower the MIC of novobiocin from >500 to 1 µg/mL [5]	FIC^c (FIC values with erythromycin) [5]	FIC^c (FIC values with novobiocin) [5]	MBC [6]	MBC [7]	MBC [8]	further results
12 mg/L (≈ 24.2 µM)	18 mg/L (≈ 36.3 µM)	> 100 mg/L	C[C@]12CC[C@@H](OCCCN)C[C@H]1C[C@@H](OCCCN)[C@@H]1[C@@H]2C[C@H](OCCCN)[C@]2(C)[C@@H](O)CC[C@@H]12 [Compound 106]	4.7 µg/mL	0.12	4.2 µg/mL	> 100 mg/L	0.66	3.6 µg/mL	8.9 µg/mL	0.044	1.8 µg/mL	30 mg/L	160 mg/L	50 mg/L	0.23	0.36	37 mg/L (≈ 74.6 µM)	100 mg/L (≈ 202 µM)	97 mg/L (≈ 196 µM)	MIC [8]: 85 mg/L (≈ 171 µM); MBC [9]: > 100 mg/L; MIC [9]: > 100 mg/L; MBC [10]: 90 mg/L (≈ 182 µM); MIC [10]: 80 mg/L (≈ 161 µM); MBC [11]: 54 mg/L (≈ 109 µM); MIC [11]: 8.6 mg/L (≈ 17.3 µM)
3.1 mg/L (≈ 5.1 µM)	2.4 mg/L (≈ 3.95 µM)	23 mg/L (≈ 37.8 µM)	CCCOCCC[C@@H](C)[C@H]1CC[C@H]2[C@@H]3[C@H](OCCCN)C[C@@H]4C[C@H](OCCCN)CC[C@]4(C)[C@H]3C[C@H](OCCCN)[C@]12C [Compound 112]	0.40 µg/mL	0.19	0.81 µg/mL	4.7 mg/L (≈ 7.73 µM)	0.035	0.1 µg/mL	0.19 µg/mL	0.031	0.11 µg/mL	0.4 mg/L	4.0 mg/L	0.8 mg/L	0.048	0.085	3 mg/L (≈ 4.93 µM)	27 mg/L (≈ 44.4 µM)	6.4 mg/L (≈ 10.5 µM)	MIC [8]: 4.6 mg/L (≈ 7.57 µM); MBC [9]: 90 mg/L (≈ 148 µM); MIC [9]: 86 mg/L (≈ 141 µM); MBC [10]: 7.4 mg/L (≈ 12.2 µM); MIC [10]: 6.6 mg/L (≈ 10.9 µM); MBC [11]: 4.2 mg/L (≈ 6.91 µM); MIC [11]: 0.55 mg/L (≈ 0.905 µM)
